Source: patent US20230134986A1, “GLUCOSE TRIPTOLIDE CONJUGATES AND USES THEREOF” (The Johns Hopkins University, priority 2020, published 2023)

Legend:
HEK 293T cells = test: HEK293T cell proliferation assay ([3H]-thymidine incorporation); format: cell-based, human; conditions: Homo sapiens; anti-proliferative activity, HEK 293T cells, 24 h drug exposure; read-out: IC50 ± SEM
Excerpt: Cells and culture conditions. Primary astrocytes (Lonza, Walkersville, Md.; ABM™ Basal Media with AGM™ SingleQuots™ Supplement Pack), fibroblast (ATCC; Fibroblast Basal Medium (ATCC© PCS-201-030™) with Fibroblast Growth Kit-Serum-free (ATCC© PCS-201-040™)), airway epithelial cell (ATCC; Airway Epithelial Cell Basal Medium (ATCC© PCS-300-030™) with Bronchial Epithelial Cell Growth Kit (ATCC© PCS-300-040™)), renal proximal tubule (ATCC; Renal Epithelial Cell Basal Medium (ATCC© PCS-400-030™) with Renal Epithelial Cell Growth Kit (ATCC© PCS-400-040™)), prostate epithelial cell (Lonza; PrEGM™ BulletKit™) and mammary epithelial cell (Lonza; MEBM™ BulletKit™) were kept in a humidified incubator at 37° C. adjusted to 5% CO2. Prostate (PC3, LNCaP, DU-145), breast (MDA-MB-231, MDA-MB-453, SK-BR-3), head and neck (A253, Detroit 562, SCC-25), melanoma (SK-Mel-3, SK-Mel-1, RPMI-7951), pancreatic (CfPAC-1, BxPC3, SW1990), lung (A549, NCI-H1299, NCI-H1437) and liver (SNU-475, SK-HEP-1, SNU-387) cancer cell lines were obtained from ATCC and cultured in their respective media (prostate cells: RPMI-1640, MDA-MB-231: RPMI-1640, MDA-MB-453: Leibovitz's L-15, SK-BR-3: McCoy's 5a, A253: McCoy's 5a, Detroit 562: EMEM, SCC-25: DMEM, SK-Mel-3: McCoy's 5a, SK-Mel-1: EMEM, RPMI-7951: EMEM), CfPAC-1: IMDM, BxPC3: RPMI-1640, SW1990: Leibovitz's L-15), A549: F-12K, NCI-H1299: RPMI-1640, NCI-H1437: RPMI-1640, SNU-475: RPMI-1640, SK-HEP-1: EMEM, SNU-387: RPMI-1640. All media were supplemented with 10% (vol/vol) filtered fetal bovine serum (FBS, Invitrogen, Carlsbad, Calif.), 1% penicillin/streptomycin (Invitrogen) and maintained in a humidified incubator at 37° C. with 5% CO2 except for MDA-MB-453 and SW1990 grown at 37° C. without CO2 control. Wild type (ATCC) and C342T XPB knock-in cells (named T7115) of Human Embryonic Kidney 293T (HEK293T), HeLa (ATCC) were cultured in DMEM (GIBCO) with 10% (vol/vol) filtered fetal bovine serum (FBS, Invitrogen, Carlsbad, Calif.), 1% penicillin/streptomycin (Invitrogen).
(§1) Proliferation and viability assays. [^3H]-thymidine incorporation. HEK293T cells (10,000 cells/well) were seeded into 96-well plates then cultured in DMEM plus 10% FBS and 1% penicillin/streptomycin at 37° C. with 5% CO2 overnight. Drugs were added at indicated concentrations and incubation was continued for an additional 24 h. For hypoxia, PC3 (5,000 cells/well) were exposed to 1% O2 (Airgas) in a humidified hypoxia chamber (Billups-Rothenberg) in 37° C. for 48 h prior to drug exposure for 48 h. Treated cells were then pulsed using an aliquot of 1 μCi of [^3H]-thymidine (Perkin Elmer) per well for an additional 6 h. Radiolabelled cells were harvested onto a printed Filtermat A glass fiber filter (Perkin Elmer) using a Tomtec Harvester 96 Mach III M. Betaplate Scint (Perkin Elmer) scintillation fluid was added to radiolabelled filters followed by scintillation counting on Microbeta2 LumiJET Microplate Counter (Perkin Elmer).

[1] = tested on: RPB1 (RNAPII) in PC3 cells; test: RPB1 degradation in PC3 cells under hypoxia, immunocytochemistry and western blot; format: cell-based, human; conditions: PC3, hypoxic (1% O2), 10 mM WZB117 plus 3 mM compound 1 (so in the source); μM)
Protocol: (§2) Western blot analysis. Whole cell lysates were prepared by adding lysis buffer [4% SDS, 20% glycerol, 10% 2-mercaptoethanol, 0.004% bromophenol blue, 0.125 M Tris-HCl (pH 6.8)] to the cell pellets for 30 minutes in ice followed by centrifugation at 12,000×g for 10 minutes then boiling for 5 minutes. For isolation of cytosolic and mitochondrial fractions of cytochrome C, cell pellets were resuspended in CLAMI buffer (250 mM sucrose, 70 mM KCl, […] digitonin in 1×PBS, protease inhibitor cocktail (1 tablet/10 ml CLAMI buffer)) then incubated on ice for 5 minutes. After centrifugation at 12,000×g for 5 minutes at 4° C., supernatant (cytoplasmic fraction) was collected and the pellet resuspended in lysis buffer as described above. Proteins were then separated by SDS-PAGE and transferred to nitrocellulose membranes (Bio-Rad). […] Antibody-protein complexes were detected using enhanced chemiluminescence (ECL) immunoblotting detection reagent (EMD Millipore).
(§3) Immunocytochemistry and cytochemistry. […] Glucose uptake was monitored by incubating cells in 200 μM 2-NBDG (ThermoFisher) for 6 hours prior to fixation. Fluorescence was observed under the Nikon Eclipse TE200 Inverted microscope (Nikon Instruments Inc., Melville, N.Y., USA). […] Rpb1 levels were measured using the MEASURE feature of ImageJ where all the background signals were subtracted from the intergrated density of nuclear Rpb1.

PC3 cells = test: PC3 proliferation under hypoxia or normoxia ([3H]-thymidine incorporation); format: cell-based, human; conditions: hypoxia versus normoxia
Protocol: as §1

[2] = tested on: RPB1 (catalytic subunit of RNAPII); test: RPB1 (RNAPII) degradation in HeLa cells, immunostaining and western blot; format: cell-based, human
Protocol: (§4) Western blot analysis. Whole cell lysates were prepared by adding lysis buffer [4% SDS, 20% glycerol, 10% 2-mercaptoethanol, 0.004% bromophenol blue, 0.125 M Tris-HCl (pH 6.8)] to the cell pellets for 30 minutes in ice followed by centrifugation at 12,000×g for 10 minutes then boiling for 5 minutes. For isolation of cytosolic and mitochondrial fractions of cytochrome C, cell pellets were resuspended in CLAMI buffer (250 mM sucrose, 70 mM KCl, […] digitonin in 1×PBS, protease inhibitor cocktail (1 tablet/10 ml CLAMI buffer)) then incubated on ice for 5 minutes. After centrifugation at 12,000×g for 5 minutes at 4° C., supernatant (cytoplasmic fraction) was collected and the pellet resuspended in lysis buffer as described above. Proteins were then separated by SDS-PAGE and transferred to nitrocellulose membranes (Bio-Rad). After blocking at room temperature for 1 h, membranes were incubated at 4′C overnight with the primary antibodies including anti-Rpb1 (Santa Cruz Biotechnology), anti-XPB (Biotechne), anti-Actin (Developmental Studies Hybridoma Bank), anti-GAPDH (Santa Cruz Biotechnology), anti-cytochrome C (Santa Cruz Biotechnology), anti-PARP1 (Santa Cruz Biotechnology), anti-cleaved caspase 3 (Cell Signaling Technology), anti-VDAC (ProteinTech), anti-HIF-1[…] (BD sciences), and anti-GLUT1 (Santa Cruz Biotechnology) antibodies followed by incubation with horseradish peroxidase-conjugated anti-mouse or anti-rabbit IgG (GE Healthcare) at room temperature for 2 hours. Antibody-protein complexes were detected using enhanced chemiluminescence (ECL) immunoblotting detection reagent (EMD Millipore).
as §3

XPB = target: T1, XPB (Homo sapiens, UniProt P19447); test: XPB degradation in cells, western blot; format: cell-based; conditions: 10 mM SP (so in the source)
T1 construct: spironolactone induces the degradation of endogenous XPB in cells; endogenous in cells
T1 sequence (P19447 whole entry): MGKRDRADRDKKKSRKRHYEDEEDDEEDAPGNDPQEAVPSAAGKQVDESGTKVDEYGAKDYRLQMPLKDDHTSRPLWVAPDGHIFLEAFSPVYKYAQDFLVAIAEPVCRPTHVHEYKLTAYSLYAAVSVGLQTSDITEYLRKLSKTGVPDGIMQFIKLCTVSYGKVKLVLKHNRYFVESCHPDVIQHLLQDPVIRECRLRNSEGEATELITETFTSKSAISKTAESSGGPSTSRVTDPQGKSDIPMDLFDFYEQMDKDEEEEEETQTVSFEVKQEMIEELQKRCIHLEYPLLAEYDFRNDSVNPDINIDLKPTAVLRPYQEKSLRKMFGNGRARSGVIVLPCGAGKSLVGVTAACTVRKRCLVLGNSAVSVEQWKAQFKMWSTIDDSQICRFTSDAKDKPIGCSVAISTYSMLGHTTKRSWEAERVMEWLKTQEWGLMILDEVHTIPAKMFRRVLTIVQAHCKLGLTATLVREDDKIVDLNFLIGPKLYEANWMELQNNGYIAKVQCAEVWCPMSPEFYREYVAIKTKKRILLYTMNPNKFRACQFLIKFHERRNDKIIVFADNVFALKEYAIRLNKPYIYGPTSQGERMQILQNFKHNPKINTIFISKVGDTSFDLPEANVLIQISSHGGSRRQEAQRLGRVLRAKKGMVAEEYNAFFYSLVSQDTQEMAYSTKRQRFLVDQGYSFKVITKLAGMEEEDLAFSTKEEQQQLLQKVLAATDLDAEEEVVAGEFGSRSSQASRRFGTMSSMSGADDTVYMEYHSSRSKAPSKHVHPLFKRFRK
Protocol: as §2

HeLa cells = test: Apoptosis signaling in HeLa cells (nuclear fragmentation, cytochrome c, caspase 3, PARP1); format: cell-based, human; conditions: co-treatment with higher concentrations of SP
Protocol: as §4
Immunocytochemistry and cytochemistry. HeLa or PC3 cells (2×10^5) were seeded on a MatTek glass bottom culture dish (Fisher Scientific, Pittsburgh, Pa., USA) and allowed to adhere for 24 h. Cells were then treated with either DMSO or drugs for 6 or 24 h then fixed with 4% paraformaldehyde, permeabilized using 1×PBS with 0.5% triton X 100 then probed for endogenous RNA Polymerase II catalytic subunit Rpb1 or HIF-1α using anti-RNAPII (Santa Cruz Biotechnology) and anti-HIF-1α (BD sciences) antibodies, respectively. Detection was then done using anti-mouse Alexa Fluor 488 (Invitrogen). For nuclear staining, fixed and permeabilized cells were incubated in DAPI (ThermoFisher) or Hoechst 33258 (Sigma) for 30 minutes prior to imaging. Glucose uptake was monitored by incubating cells in 200 μM 2-NBDG (ThermoFisher) for 6 hours prior to fixation. Fluorescence was observed under the Nikon Eclipse TE200 Inverted microscope (Nikon Instruments Inc., Melville, N.Y., USA). ImageJ software (NIH, Bethesda, Md., USA; http://imagej.nih.gov/ij/index.html) was used to measure intracellular protein levels in immuno-cytochemistry samples (Li et al. (2015) Toxicological Sciences: an Official Journal of the Society of Toxicology 143:196-208). Rpb1 levels were measured using the MEASURE feature of ImageJ where all the background signals were subtracted from the intergrated density of nuclear Rpb1.

[3] = cited from earlier work
[4] = lethal case dosed with 18 mg/m2 F60008

CC(C)[C@]12O[C@H]1[C@@H]1O[C@]13[C@]1(O[C@H]1C[C@H]1C4=C(CC[C@@]13C)C(=O)OC4)[C@@H]2OC(=O)CC(C)(C)C(=O)O[C@@H]1OC(CO)[C@@H](O)C(O)C1O (stereo partly drawn) [Compound 2]
IC50 (HEK 293T cells): 3305 ± 0.98 nM

O=C(Oc1cccc(F)c1OC(=O)c1cccc(O)c1)c1cccc(O)c1 [WZB117, reference compound]
effect on compound 1-induced RNAPII degradation [1]: abolished the rapid degradation of endogenous RNAPII

COc1cccc2c1C(=O)c1c(O)c3c(c(O)c1C2=O)C[C@@](O)(C(=O)CO)C[C@@H]3O[C@H]1C[C@H](N)[C@H](O)[C@H](C)O1 [doxorubicin]
change of potency under hypoxia (PC3 cells): decreased

CC(C)[C@]12O[C@H]1[C@@H]1O[C@]13[C@]1(O[C@H]1C[C@H]1C4=C(CC[C@@]13C)C(=O)OC4)[C@@H]2OC(=O)c1ccccc1C(=O)O[C@H]1OC(CO)[C@@H](O)C(O)C1O (stereo partly drawn) [Compound 5]
IC50 (HEK 293T cells): 6667 ± 2.03 nM

CC(C)[C@]12O[C@H]1[C@@H]1O[C@]13[C@]1(O[C@H]1C[C@H]1C4=C(CC[C@@]13C)C(=O)OC4)[C@@H]2OC(=O)CCCC(=O)O[C@@H]1OC(CO)[C@@H](O)C(O)C1O (stereo partly drawn) [Compound 6]
IC50 (HEK 293T cells): 1134 ± 1.15 nM

CC(C)[C@]12O[C@H]1[C@@H]1O[C@]13[C@]1(O[C@H]1C[C@H]1C4=C(CC[C@@]13C)C(=O)OC4)[C@@H]2OC(=O)CCC(=O)OCC1OC(O)C(O)C(O)[C@@H]1O (stereo partly drawn) [Compound 8]
IC50 (HEK 293T cells): 244 ± 0.81 nM

CC(C)[C@]12O[C@H]1[C@@H]1O[C@]13[C@]1(O[C@H]1C[C@H]1C4=C(CC[C@@]13C)C(=O)OC4)[C@@H]2OC(=O)CCCC(=O)O[C@H]1OC(CO)[C@@H](O)C(O)C1O (stereo partly drawn) [Compound 7]
IC50 (HEK 293T cells): 735 ± 1.11 nM

CC(C)[C@]12O[C@H]1[C@@H]1O[C@]13[C@]1(O[C@H]1C[C@H]1C4=C(CC[C@@]13C)C(=O)OC4)[C@@H]2OC(=O)c1ccccc1C(=O)O[C@@H]1OC(CO)[C@@H](O)C(O)C1O (stereo partly drawn) [Compound 4]
IC50 (HEK 293T cells): 5888 ± 1.19 nM

CO[C@H]1OC(COC(=O)CCC(=O)O[C@@H]2[C@@]3(C(C)C)O[C@H]3[C@@H]3O[C@]34[C@]23O[C@H]3C[C@H]2C3=C(CC[C@@]24C)C(=O)OC3)[C@@H](O)C(O)C1O (stereo partly drawn) [Compound 9]
IC50 (HEK 293T cells): 395 ± 0.523 nM

CC(C)[C@]12O[C@H]1[C@@H]1O[C@]13[C@]1(O[C@H]1C[C@H]1C4=C(CC[C@@]13C)C(=O)OC4)[C@@H]2OC(=O)CC(C)(C)C(=O)O[C@H]1OC(CO)[C@@H](O)C(O)C1O (stereo partly drawn) [Compound 3]
IC50 (HEK 293T cells): 999 ± 0.217 nM

CC(=O)S[C@@H]1CC2=CC(=O)CC[C@]2(C)[C@H]2CC[C@@]3(C)[C@@H](CC[C@@]34CCC(=O)O4)[C@H]12 [spironolactone]
endogenous RNAPII (RPB1) level ([2]; 10 mM spironolactone alone (so in the source); 10 μM)): do not affect protein levels | rescue of RNAPII from compound 1-induced degradation ([2]; pre-treatment with 10 mM spironolactone (so in the source), then 1 mM compound 1): rescues endogenous RNAPII | degradation of XPB (XPB): caused degradation of the majority of XPB | effect on compound 1-induced PARP1 cleavage (HeLa cells): prevented PARP1 cleavage

CC(C)C12OC1C1OC13C1(C)CCC4=C(COC4=O)C1CC1OC13C2OC(=O)CCC(=O)O (stereo not drawn) [Compound F60008, triptolide-succinate]
lethality in patients ([3]; administered with <12 mg/m^2 F60008): no lethality was observed in 18 of the 20 patients | lethality in early human clinical study ([3]; highest dose of therapy): lethal to two patients | Maximum serum levels [3, 4]: 1,361 ng/mL | Maximum serum levels (molar) [3, 4]: ~2.96 mM
